From ChEMBL document CHEMBL1201862, “PubChem BioAssay data set” (2004)
The source made the active and inactive calls.

Assays:
[1] = biological target: Sphingosine 1-phosphate receptor 3 (Homo sapiens, UniProt Q99500); assay: Dose response cell-based high throughput screening assay for antagonists of the Sphingosine 1-Phosphate Receptor 3 (S1P3). [Related pubchem assays: 1429, 485 ]; format: functional
[2] = biological target: 5-hydroxytryptamine receptor 1E (Homo sapiens, UniProt P28566); assay: Counterscreen assay for S1P3 antagonists: Dose response cell-based high throughput screening assay to identify antagonists of the 5-Hydroxytryptamine Receptor Subtype 1E (5HT1E). [Related pubchem assays: 1429, 485 ]; format: functional
5-hydroxytryptamine receptor 1E, sequence (P28566 whole entry): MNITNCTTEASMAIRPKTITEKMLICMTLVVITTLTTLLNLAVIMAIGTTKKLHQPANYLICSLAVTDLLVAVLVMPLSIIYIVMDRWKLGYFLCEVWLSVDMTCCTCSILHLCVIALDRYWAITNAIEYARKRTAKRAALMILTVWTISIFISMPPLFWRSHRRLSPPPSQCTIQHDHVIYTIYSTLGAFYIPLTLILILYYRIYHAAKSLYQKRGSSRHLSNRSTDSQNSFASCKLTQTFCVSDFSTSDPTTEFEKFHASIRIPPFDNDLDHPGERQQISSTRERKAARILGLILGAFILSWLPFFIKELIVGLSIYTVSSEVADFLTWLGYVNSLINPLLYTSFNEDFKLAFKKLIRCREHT

[3] = biological target: T1, NADPH oxidase 1 (Homo sapiens, UniProt Q9Y5S8); assay: Late-stage luminescence-based cell-based dose response assay to identify inhibitors of NADPH oxidase 1 (NOX1): Purchased analogs 2.; format: functional
T1 sequence (Q9Y5S8 whole entry): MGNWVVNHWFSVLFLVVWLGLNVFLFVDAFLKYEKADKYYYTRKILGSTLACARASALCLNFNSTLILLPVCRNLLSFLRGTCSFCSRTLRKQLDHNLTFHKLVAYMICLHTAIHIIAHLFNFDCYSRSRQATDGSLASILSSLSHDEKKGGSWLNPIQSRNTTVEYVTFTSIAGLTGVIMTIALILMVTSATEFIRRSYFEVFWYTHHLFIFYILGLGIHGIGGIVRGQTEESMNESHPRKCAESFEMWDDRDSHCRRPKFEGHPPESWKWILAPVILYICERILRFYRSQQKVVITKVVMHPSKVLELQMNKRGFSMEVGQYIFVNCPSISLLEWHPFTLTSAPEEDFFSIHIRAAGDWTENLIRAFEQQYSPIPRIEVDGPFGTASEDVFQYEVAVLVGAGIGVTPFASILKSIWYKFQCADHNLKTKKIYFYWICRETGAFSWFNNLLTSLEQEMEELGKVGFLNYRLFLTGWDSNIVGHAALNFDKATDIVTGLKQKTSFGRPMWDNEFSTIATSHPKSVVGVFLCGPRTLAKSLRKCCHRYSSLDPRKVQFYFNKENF

[4] = biological target: Glyceraldehyde-3-phosphate dehydrogenase (Homo sapiens, UniProt P04406)
Glyceraldehyde-3-phosphate dehydrogenase, sequence (P04406 whole entry): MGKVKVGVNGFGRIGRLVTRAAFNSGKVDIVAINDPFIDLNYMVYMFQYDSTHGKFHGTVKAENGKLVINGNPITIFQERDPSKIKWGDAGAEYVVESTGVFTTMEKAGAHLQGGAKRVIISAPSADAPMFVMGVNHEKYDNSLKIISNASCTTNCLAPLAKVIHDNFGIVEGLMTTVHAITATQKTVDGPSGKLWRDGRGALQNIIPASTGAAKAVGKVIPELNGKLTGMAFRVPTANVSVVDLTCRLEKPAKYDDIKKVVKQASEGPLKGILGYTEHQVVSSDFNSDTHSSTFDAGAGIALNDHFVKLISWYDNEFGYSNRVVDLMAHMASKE

[5] = biological target: T2, Bcl-2-related protein A1 (Mus musculus, UniProt Q07440); assay: Bfl-1 binding inhibitors, SAR follow-up, biochemical, fluorescence polarization (AID 1070)
T2 sequence (Q07440 whole entry): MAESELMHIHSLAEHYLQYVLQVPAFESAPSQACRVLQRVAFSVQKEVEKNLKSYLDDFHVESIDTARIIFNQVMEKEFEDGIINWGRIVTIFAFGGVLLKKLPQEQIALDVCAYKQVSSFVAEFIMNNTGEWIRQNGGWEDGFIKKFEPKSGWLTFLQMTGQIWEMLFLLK

[6] = biological target: T2, Bcl-2-related protein A1; assay: small-molecule antagonists of Bfl-1/BH3 interaction – biochemical, TR-FRET, mouse Bfl-1, confirmation (AID 621);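 also: TR-FRET binding of GST-Bfl-1 to FITC-labelled Bid peptide via terbium antibody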
[7] = biological target: Peroxisome proliferator-activated receptor gamma/Nuclear receptor coactivator 2 (Homo sapiens, UniProt P37231); assay: (§1) TR-FRET dose response biochemical High Throughput Screening assay for agonists of the steroid receptor coactivator 2 (SRC-2) recruitment by the peroxisome proliferator-activated receptor gamma (PPAR gamma): non-selective agonists. [Related pubchem assays: 1297, 1032 ]; format: functional
[8] = biological target: Peroxisome proliferator-activated receptor gamma/Nuclear receptor coactivator 3 (Homo sapiens, UniProt P37231); assay: as §1, with “3 (SRC-3)” for “2 (SRC-2)”, “1301 (Confirmation screen.), 1048 (Primary screen.)]” for “1297, 1032 ]”; format: functional
Peroxisome proliferator-activated receptor gamma/Nuclear receptor coactivator 3, sequence (P37231 whole entry): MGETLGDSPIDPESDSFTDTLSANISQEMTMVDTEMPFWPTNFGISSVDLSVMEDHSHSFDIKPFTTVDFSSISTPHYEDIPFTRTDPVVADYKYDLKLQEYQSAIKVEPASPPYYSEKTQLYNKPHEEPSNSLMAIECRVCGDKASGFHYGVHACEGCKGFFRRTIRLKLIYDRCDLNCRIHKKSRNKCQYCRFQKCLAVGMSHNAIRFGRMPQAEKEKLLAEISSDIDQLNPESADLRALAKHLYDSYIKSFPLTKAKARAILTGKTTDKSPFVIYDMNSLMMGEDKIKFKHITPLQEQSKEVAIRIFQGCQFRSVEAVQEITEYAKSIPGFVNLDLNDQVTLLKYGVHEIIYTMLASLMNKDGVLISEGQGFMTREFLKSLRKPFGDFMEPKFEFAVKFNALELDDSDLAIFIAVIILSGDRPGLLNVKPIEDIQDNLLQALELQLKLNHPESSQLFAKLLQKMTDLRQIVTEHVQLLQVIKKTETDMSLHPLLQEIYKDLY
Peroxisome proliferator-activated receptor gamma/Nuclear receptor coactivator 3, sequence (Q9Y6Q9 whole entry, further chain): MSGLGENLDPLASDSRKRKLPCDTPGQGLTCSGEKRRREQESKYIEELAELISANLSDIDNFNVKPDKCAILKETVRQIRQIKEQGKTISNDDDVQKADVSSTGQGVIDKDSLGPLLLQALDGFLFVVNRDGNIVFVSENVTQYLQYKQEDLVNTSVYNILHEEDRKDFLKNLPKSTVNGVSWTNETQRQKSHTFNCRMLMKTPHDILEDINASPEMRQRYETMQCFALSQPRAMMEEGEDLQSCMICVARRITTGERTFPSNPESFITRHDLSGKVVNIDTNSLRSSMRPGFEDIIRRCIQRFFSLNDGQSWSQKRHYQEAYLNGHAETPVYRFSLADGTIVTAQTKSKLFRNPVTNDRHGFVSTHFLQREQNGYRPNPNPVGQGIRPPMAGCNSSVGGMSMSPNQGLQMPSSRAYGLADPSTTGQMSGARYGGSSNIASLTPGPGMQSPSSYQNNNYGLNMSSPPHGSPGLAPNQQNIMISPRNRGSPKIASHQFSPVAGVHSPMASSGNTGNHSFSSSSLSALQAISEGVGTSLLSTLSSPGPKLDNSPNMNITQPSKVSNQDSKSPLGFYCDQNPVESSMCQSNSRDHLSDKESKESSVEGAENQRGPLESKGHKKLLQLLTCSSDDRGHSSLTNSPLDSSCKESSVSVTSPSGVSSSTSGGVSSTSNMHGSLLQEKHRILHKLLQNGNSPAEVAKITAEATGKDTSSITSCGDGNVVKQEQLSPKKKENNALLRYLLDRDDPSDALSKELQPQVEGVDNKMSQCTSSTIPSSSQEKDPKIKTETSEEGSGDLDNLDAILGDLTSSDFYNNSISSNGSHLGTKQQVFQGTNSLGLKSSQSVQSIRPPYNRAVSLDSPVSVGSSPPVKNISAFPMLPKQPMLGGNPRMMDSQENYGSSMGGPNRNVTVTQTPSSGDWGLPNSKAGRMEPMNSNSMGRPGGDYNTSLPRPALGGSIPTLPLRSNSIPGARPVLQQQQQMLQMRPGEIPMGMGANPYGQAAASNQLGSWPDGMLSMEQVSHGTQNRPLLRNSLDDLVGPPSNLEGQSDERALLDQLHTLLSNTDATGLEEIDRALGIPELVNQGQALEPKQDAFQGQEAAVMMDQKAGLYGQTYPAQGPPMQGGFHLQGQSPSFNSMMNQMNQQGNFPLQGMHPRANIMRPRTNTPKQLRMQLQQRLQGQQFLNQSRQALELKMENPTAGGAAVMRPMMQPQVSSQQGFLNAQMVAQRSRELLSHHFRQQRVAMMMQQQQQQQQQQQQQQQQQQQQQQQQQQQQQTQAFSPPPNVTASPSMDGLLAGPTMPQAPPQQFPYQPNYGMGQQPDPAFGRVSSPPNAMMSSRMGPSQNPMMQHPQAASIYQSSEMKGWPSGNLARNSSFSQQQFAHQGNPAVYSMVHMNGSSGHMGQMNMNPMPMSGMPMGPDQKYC

[9] = biological target: Peroxisome proliferator-activated receptor gamma/Nuclear receptor coactivator 1 (Homo sapiens, UniProt P37231); assay: as §1, with “1 (SRC-1)” for “2 (SRC-2)”, “assays (depositor defined):AID1300, AID1808, AID504735, AID631]” for “assays: 1297, 1032 ]”; format: protein assay
Peroxisome proliferator-activated receptor gamma/Nuclear receptor coactivator 1, sequence (P37231 whole entry): as the sequence (P37231 whole entry) above
Peroxisome proliferator-activated receptor gamma/Nuclear receptor coactivator 1, sequence (Q15788 whole entry, further chain): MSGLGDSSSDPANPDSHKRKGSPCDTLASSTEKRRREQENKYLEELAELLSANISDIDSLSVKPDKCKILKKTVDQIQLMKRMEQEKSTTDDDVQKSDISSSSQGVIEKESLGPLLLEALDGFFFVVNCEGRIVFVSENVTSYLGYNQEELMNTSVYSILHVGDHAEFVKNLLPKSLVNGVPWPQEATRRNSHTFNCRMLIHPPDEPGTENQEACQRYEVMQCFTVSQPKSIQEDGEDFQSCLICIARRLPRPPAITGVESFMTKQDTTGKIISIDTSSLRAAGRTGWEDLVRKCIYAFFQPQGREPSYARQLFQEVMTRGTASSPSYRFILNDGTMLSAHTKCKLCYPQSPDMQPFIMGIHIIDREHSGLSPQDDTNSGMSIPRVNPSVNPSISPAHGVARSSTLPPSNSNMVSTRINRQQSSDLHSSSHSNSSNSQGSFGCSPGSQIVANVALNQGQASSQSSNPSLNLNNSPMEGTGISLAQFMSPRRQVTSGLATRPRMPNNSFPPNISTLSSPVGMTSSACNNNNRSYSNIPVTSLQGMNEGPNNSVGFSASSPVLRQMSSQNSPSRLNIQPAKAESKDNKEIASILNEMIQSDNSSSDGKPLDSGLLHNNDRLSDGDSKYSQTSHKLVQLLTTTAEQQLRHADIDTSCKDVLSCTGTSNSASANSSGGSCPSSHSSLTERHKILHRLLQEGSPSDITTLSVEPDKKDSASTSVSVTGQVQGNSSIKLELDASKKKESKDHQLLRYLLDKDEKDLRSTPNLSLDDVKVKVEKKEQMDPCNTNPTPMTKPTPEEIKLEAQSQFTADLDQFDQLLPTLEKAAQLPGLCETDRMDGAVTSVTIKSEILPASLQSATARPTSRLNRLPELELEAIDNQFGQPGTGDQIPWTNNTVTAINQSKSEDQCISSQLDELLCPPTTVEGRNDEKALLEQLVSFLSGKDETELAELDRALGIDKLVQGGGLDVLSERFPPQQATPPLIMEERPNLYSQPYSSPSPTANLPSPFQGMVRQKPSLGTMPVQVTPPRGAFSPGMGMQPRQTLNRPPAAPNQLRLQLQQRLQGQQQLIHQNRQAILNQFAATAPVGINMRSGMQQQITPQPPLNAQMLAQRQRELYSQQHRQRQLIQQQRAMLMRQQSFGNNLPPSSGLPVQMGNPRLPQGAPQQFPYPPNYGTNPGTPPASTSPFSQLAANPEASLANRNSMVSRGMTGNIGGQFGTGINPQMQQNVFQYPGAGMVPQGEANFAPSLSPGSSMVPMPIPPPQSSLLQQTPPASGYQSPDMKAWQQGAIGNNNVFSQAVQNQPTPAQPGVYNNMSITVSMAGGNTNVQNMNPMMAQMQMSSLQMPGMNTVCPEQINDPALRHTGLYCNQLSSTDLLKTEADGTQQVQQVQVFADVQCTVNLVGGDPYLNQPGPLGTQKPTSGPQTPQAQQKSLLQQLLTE

[10] = biological target: Peroxisome proliferator-activated receptor gamma/Nuclear receptor corepressor 2 (Homo sapiens, UniProt P37231+Q9Y618); assay: Counterscreen for NR2E3 inverse agonists: TR-FRET-based biochemical high throughput dose response assay to identify inverse agonists of the interaction between peroxisome proliferator-activated receptor gamma (PPARg) and nuclear receptor co-repressor 2 (NCOR2).; format: functional
[11] = biological target: Photoreceptor-specific nuclear receptor (Homo sapiens, UniProt Q9Y5X4); assay: ligands suppressing NR2E3 nuclear receptor activity – biochemical, TR-FRET, dose response (AID 463256); format: functional
[12] = biological target: Induced myeloid leukemia cell differentiation protein Mcl-1 (Homo sapiens, UniProt Q07820); format: functional
[13] = antiviral protection against BTV-induced cell death – arbovirus, BSR cells, confirmation (AID 1250); format: functional;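 also: protection from viral cytopathic effect measured as cell viability by ATP luminescence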
[14] = biological target: T3, Neuropeptide Y receptor type 1 (Homo sapiens, UniProt P25929); assay: IC50 of human NPY-Y1 blockers – cell-based, dose response (AID 1277); format: functional
T3 sequence (P25929 whole entry): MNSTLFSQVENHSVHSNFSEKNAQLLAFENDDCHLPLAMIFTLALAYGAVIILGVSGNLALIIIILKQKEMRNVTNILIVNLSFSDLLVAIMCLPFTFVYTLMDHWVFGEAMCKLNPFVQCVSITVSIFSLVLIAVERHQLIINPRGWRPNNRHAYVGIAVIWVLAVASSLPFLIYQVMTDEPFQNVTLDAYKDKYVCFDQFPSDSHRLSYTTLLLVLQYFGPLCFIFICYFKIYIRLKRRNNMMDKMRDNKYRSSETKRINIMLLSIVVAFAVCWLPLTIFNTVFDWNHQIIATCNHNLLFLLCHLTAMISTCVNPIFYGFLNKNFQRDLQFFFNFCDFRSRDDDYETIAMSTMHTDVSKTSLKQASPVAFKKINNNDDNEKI

[15] = biological target: T4, Neuropeptide Y receptor type 2 (Homo sapiens, UniProt P49146); assay: IC50 for human NPY-Y2 blockade – cell-based, counter-screen for NPY-Y1 antagonist project, dose response (AID 1278); format: functional
T4 sequence (P49146 whole entry): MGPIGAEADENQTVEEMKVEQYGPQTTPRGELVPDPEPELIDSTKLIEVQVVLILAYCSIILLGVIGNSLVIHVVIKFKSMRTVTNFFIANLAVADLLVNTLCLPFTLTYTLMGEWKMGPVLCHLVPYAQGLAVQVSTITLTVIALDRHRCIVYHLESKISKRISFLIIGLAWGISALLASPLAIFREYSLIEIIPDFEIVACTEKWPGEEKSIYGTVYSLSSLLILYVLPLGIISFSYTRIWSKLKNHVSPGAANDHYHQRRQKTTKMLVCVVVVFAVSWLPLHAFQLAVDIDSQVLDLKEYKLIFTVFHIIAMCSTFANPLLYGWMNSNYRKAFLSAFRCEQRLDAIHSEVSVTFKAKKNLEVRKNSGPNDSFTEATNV

[16] = biological target: Estrogen receptor (Homo sapiens, UniProt P03372);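 also: potency for inhibiting coactivator peptide recruitment to the receptor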
[17] = biological target: Estrogen receptor beta (Homo sapiens, UniProt Q92731);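 also: recombinant ER-beta bound to coactivator SRC1 peptide in presence of estradiol agonist; inhibitors block coactivator peptide binding and lower the FRET signal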
[18] = biological target: Voltage-gated inwardly rectifying potassium channel KCNH2 (Homo sapiens, UniProt Q12809); assay: concentration-dependent hERG rescue from blockers – cell-based, thallium flux, dose response (AID 2121); format: ADME
[19] = A High Throughput Confirmatory Assay used to Identify Novel Compounds that Inhibit Mycobacterium Tuberculosis in the absence of Glycerol.; format: functional
[20] = Trypanosoma cruzi growth suppression in host cells – NIH3T3 host cells, beta-gal luminescence, confirmation (AID 2044); format: functional, cell-based;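 also: intracellular parasites grown in NIH/3T3 mouse fibroblasts as host cells; luminescent beta-galactosidase reporter signal from transgenic T. cruzi replicating inside host cells; inhibitors lower the luminescence signal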
[21] = NIH3T3 cell viability loss – ATP luminescence, mouse fibroblasts, counter-screen, dose response (AID 2010); format: functional, cell-based;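 also: cells exposed to compound for about 90 hours before reading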

Sphingosine 1-phosphate receptor 3, sequence (Q99500 whole entry): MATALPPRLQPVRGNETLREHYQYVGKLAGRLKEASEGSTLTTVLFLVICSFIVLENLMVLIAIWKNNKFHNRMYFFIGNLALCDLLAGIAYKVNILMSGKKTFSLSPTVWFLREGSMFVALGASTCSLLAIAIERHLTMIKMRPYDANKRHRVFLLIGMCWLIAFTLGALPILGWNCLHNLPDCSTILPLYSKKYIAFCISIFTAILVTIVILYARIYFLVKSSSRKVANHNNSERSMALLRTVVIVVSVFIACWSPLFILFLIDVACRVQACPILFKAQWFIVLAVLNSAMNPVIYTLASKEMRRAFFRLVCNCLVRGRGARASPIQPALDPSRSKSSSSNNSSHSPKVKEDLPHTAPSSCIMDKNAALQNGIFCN

Cc1ccc(NC(=O)C(OC(=O)c2ccccc2Cl)c2ccccc2)cc1Cl (stereo unspecified)
IC50 [1]: 9.24 µM (active) | IC50 [2]: 5.28 µM (active)

C=C(NNc1c(F)c(F)nc(F)c1F)c1ccc(OC)cc1
IC50 [3]: > 17 µM (not active)

O=C1C(Cl)=C(N2CCOCC2)C(=O)N1c1c(Cl)cccc1Cl
IC50 [4]: > 10 µM (inconclusive) | IC50 [5]: > 100 µM (not active) | IC50 [6]: > 100 µM (not active)

O=C(COc1ccc2ccccc2c1)NCCNC(=O)COc1ccc2ccccc2c1
EC50 [7]: 8.67 µM (active) | EC50 [8]: 47.8 µM (not active) | EC50 [9]: 8.38 µM (active) | IC50 [10]: 5.82 µM (active) | IC50 [11]: 4.75 µM (active)

CN1CCN(S(=O)(=O)c2ccc(NC(=S)NC(=O)c3ccc(Cl)cc3)cc2)CC1
IC50 [12]: 4.19 µM (active) | IC50 [13]: > 100 µM (active)

CC1=CC(C)(C)N(C(=O)CNC2CCCCC2)c2cc(C)ccc21
IC50 [14]: 6.84 µM (active) | IC50 [15]: 12.3 µM (not active)

CCOC(=O)C1=C(O)/C(=C\c2ccc(CNC(=O)C(=O)Nc3ccc(C)c(C)c3)o2)N=C1C
IC50 [16]: 40.5 µM (not active) | IC50 [17]: > 50 µM (not active)

CCOc1ccccc1NC(=O)C(=O)CC(=O)c1ccc(OC)cc1
EC50 [18]: 3.01 µM (active)

CCCCNc1nc(N(C)c2ccccc2)nc(-n2ccnc2)n1
IC50 [19]: > 100 µM (active) | EC50 [20]: 0.55 µM (active) | EC50 [21]: > 30 µM (not active)
